Data published in PubChem BioAssay AID493003 (Sanford-Burnham Center for Chemical Genomics, 2010).
Calls of active or inactive are those of the source. The rule behind the calls is not given here.

test system: S. cerevisiae tim10-1 mutant growth, luminescence; experiment: growth inhibitors of tim10-1 mutant yeast, dose response, luminescence, S. cerevisiae, uHTS hits (AID 493003);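 note: yeast growth measured after about 22 hours at 25 °C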

SMILES	IC50
Cc1nn(-c2ccc(Cl)cc2)c2[nH]c(CCl)cc(=O)c12	33.5 µM
Cc1oc2c(Cl)c(Cl)c(O)c(CN(C)C)c2c1C(=O)c1ccc(Cl)cc1	18.6 µM
CCCc1cc(-c2n[nH]c(=S)n2-c2cccc(C)c2)cs1	37.5 µM
CC(=O)N1CCN(c2cc(N3CCc4ccccc4C3)c(F)cc2[N+](=O)[O-])CC1	9.9 µM
COc1ccc(/C(C)=N/NC(=S)NCCc2ccccc2)cc1	5.69 µM
COc1cccc(-c2csc(N3CCN(C(=S)Nc4ccccc4Cl)CC3)n2)c1	21.3 µM
Cc1nnc(SC2CC(=O)N(c3ccccc3)C2=O)s1 (stereo not drawn)	31.1 µM
Cc1ccc(F)c([C@H]2[C@@H]3C=CCC[C@@]3(C)C(=O)N2Cc2ccccc2)c1	14.6 µM
Oc1ccccc1-c1csc(-c2ccccc2)n1	26.3 µM
O=S(=O)(Nc1ccc(N=Nc2ccccc2)cc1)c1ccccc1	35.5 µM
COc1ccc(/C=C2\CCc3ccccc3C2=O)cc1Cn1cccn1	25.6 µM
CC(C)C(c1nnnn1C1CCCC1)N1CCCc2ccccc21 (stereo not drawn)	14.2 µM
O=C(/C=C/c1ccc2c(c1)OCCCO2)c1ccccc1O	12.2 µM
O=C(NC(=S)Nc1ccccc1N1CCCC1)c1ccc([N+](=O)[O-])cc1	14 µM
CC(C)C1O/C(=N/C(=O)Nc2ccc(Cl)c(Cl)c2)NC1=O (stereo not drawn)	32.3 µM
CCc1ccc2nc3nc(C)cc(C)c3c(N)c2c1	25.1 µM
O=C(C1CCC1)N1CCc2cc(S(=O)(=O)N3CCN(c4ccccn4)CC3)ccc21	24.3 µM
Cc1ccnn2cc3c(=O)n(C)c(=O)n(C)c3c12	63.1 µM
Cc1cc(/C=C\c2ccc3cc(N(C)C)ccc3[n+]2C)c(C)n1-c1ccccc1	9.45 µM
CCCCc1ccc(NC(=S)Nc2ccc(Nc3ccc(OC)cc3)cc2)cc1	12.9 µM

SMILES	IC50
CCCCNC(=S)N=Nc1c(O)[nH]c2ccccc12	9.9 µM
Cc1nn2c3ccccc3nc2c2ccccc12	77.1 µM
COc1ccc(N2C(=O)CC(Sc3nc4ccccc4s3)C2=O)cc1 (stereo not drawn)	32.5 µM
O=[N+]([O-])c1ccc2oc(C(O)c3cccc(Cl)c3)cc2c1 (stereo not drawn)	15.1 µM
CC(C)(C)c1cc(C(=O)N/N=C/c2ccc(F)cc2)n(-c2ccccc2)n1	36.4 µM
Cc1[nH]c2ccccc2c1C(O)CN1CCN(c2cccc(C(F)(F)F)c2)CC1 (stereo not drawn)	21.3 µM
Cc1[nH]c(-c2ccc(F)cc2)cc1C(=O)N1CCN(c2ccccc2F)CC1	35.5 µM
CCN1C(=O)C2(C(C#N)=C(N)Oc3c2c(C)nn3-c2ccccc2)c2ccccc21 (stereo not drawn)	22.2 µM
N#C/C(=C\c1c[nH]c2ccc(Br)cc12)c1ccccn1	33.4 µM
CC(C)C(=O)Nc1ccc(-c2nc3ccccc3c(=O)o2)cc1	36.5 µM
FC(F)C(F)(F)C(F)(F)C(F)(F)c1cc(-c2ccccc2)n[nH]1	15.2 µM
Cc1cc(N)n2ncc(-c3ccc(F)cc3)c2n1	36 µM
O=C(CNS(=O)(=O)c1c(Cl)cccc1Cl)OCc1csc(-c2ccccc2)n1	41 µM
O=[N+]([O-])/C(C(Cl)=C(Cl)Cl)=C(/Sc1ccccc1)N1CCCCC1	38.7 µM
O=C1C=C(NC(=O)Nc2ccc(Cl)c(Cl)c2)CCC1	95.6 µM
CN(C1CCCCC1)S(=O)(=O)c1ccc(NC(=O)c2ccco2)cc1	38 µM
CSc1ccc2nnc(-c3cccc(F)c3)n2n1	29.6 µM
Cc1cc([N+](=O)[O-])ccc1-c1ccc(C2Nc3ccccc3C(=O)N2O)o1 (stereo not drawn)	12.4 µM
CCOC(=O)c1c(CSc2ccc(C)cc2)n(C)c2cc(Br)c(O)c(CN(C)C)c12	15.9 µM
CC(C)CN(CC(C)C)C(=S)Nc1ccc(Cl)cc1	15.6 µM

SMILES	IC50
Cc1cc(C)n2nc(SCc3c(F)cccc3Cl)nc2n1	> 100 µM (inactive)
CC(C)(C)c1ccc(-c2n[nH]c(=S)n2Cc2ccccc2)cc1	33.1 µM
O=C(/C=C/c1c[nH]c2ccccc12)c1ccccc1	78.2 µM
N/C(=N\OC(=O)CC(c1ccccc1)c1ccccc1)c1cccnc1	41.8 µM
CC(C)Cn1c2c(c(O)c(C(=O)Nc3nccs3)c1=O)CCCC2	96.8 µM
Cc1ccc(-c2csc3ncnc(Nc4ccc(N5CCOCC5)cc4)c23)cc1	53.4 µM
Cc1ccc(NC(=O)c2ccc(Cl)c(N3C(=O)C=CC3=O)c2)cc1	8.63 µM
COc1cc(C(=O)Nc2ccc(Nc3ccccc3)cc2)cc(OC)c1OC	> 100 µM (inactive)
COc1ccc2sc(N(CCCN(C)C)C(=O)c3ccc(S(=O)(=O)N4CCCc5ccccc54)cc3)nc2c1	16.4 µM
COc1ccccc1C(CCNCc1ccccc1)c1ccc(OC(C)C)cc1 (stereo not drawn)	19.9 µM
CC(=O)OC[C@]12CCC(C)=C[C@H]1O[C@@H]1[C@H](O)[C@@H](OC(C)=O)[C@@]2(C)[C@]12CO2	30.8 µM
O=C(NC1CCCCC1)c1ccc(-c2ccc(Cl)cc2)o1	17.4 µM
Cc1c(Cl)cccc1NC(=O)c1cccc(OC(F)F)c1	32.8 µM
CSc1ccccc1NC(=O)C1CC(c2c(F)cccc2Cl)=NO1 (stereo not drawn)	25.9 µM
CCN1C(=O)/C(=C/c2c(C)nn(C)c2C)SC1=S	24.4 µM
Cc1nc2c(-c3ccccc3)cnn2c(N)c1-c1ccccc1	24 µM
CN1CCc2c(C#N)c(N3CCCCC3)nc(NCc3ccccc3)c2C1	16 µM
Cc1cc(C)c(CSc2ncc(-c3ccc([N+](=O)[O-])cc3)[nH]2)c(C)c1	12.9 µM
